Laboratory results published in patent US20250270159A1, “1-(CYCLOBUTANEMETHYLIDENE)-2, 4, 5-TRIMETHOXYBENZENE COMPOUND AND PREPARATION METHOD AND USE THEREOF” (CHENGDU XINRUI TAIKANG TECHNOLOGY CO., LTD., priority 2023, published 2025).

Assays:
[1] = system: ischemic stroke induced by the filament technique in rats; assay: Long-term ischemic stroke (MCAO), bonding (adhesive tape) test; format: in vivo; conditions: for Time for rats to perceive tape, Day 1 / Time for rats to perceive tape, Day 4 / Time for rats to perceive tape, Day 7 / Time for rats to perceive tape, Day 10 / Time for rats to perceive tape, Day 14 / Time of removing tape, Day 1 / Time of removing tape, Day 4 / Time of removing tape, Day 7 / Time of removing tape, Day 10 / Time of removing tape, Day 14: cut-off 60 s
Protocol: The rats were randomly divided into a sham operation group (Sham group, given a blank emulsion with a volume equal to that of the high-dose CTMB group), a model group (Vehicle group, given a blank emulsion with a volume equal to that of the high-dose CTMB group), a low-dose CTMB group (CTMB-L group, 10 mg/kg), a high-dose CTMB group (CTMB-H group, 20 mg/kg), and an edaravone dexborneol injection concentrated solution group (EDB group, commercially available, 3 mg/kg). 10 rats were included in each group, which were administered by intraperitoneal injection. It should be noted that in the experiment, the mode of administration for rats was intraperitoneal injection, and a ratio of the effective dose of CTMB, the active ingredient in the emulsion injection, to the unit mass of the human body was within a range of 0.2 mg-4.0 mg/kg, which referred to the ratio of the effective dose of CTMB, the active ingredient in the emulsion injection, to the unit mass of the human body during intravenous infusion, which was extrapolated from the effective dose of the rats. Considering the different bioavailability, peak concentration, and peak time of the drug due to different species and different modes of administration, the effective dose of the active ingredient CTMB in the emulsion injection to the unit mass of human body was finally determined to be 0.2 mg-4.0 mg/kg through conversion.
The rats were fasted for 12 h before procedure, and the rats were anesthetized with 10% chloral hydrate (350 mg/kg, i.p.). The rats were fixed in the supine position, and the body temperature was maintained at about 37° C. For neck preparation, a median neck incision was made, the muscle and fascia were separated along the inner edge of the sternocleidomastoid muscle to expose the right side, the common carotid artery (CCA), external carotid artery (ECA), and internal carotid artery (ICA) were separated bluntly, and the lines were disposed of proximally in the CCA proximal end, ICA, and ECA for backup. The CCA proximal end and ECA were ligatured, and an arterial clip was used to temporarily close the ICA, then a small hole was poked at a position of CCA having about 4 mm from the bifurcation with a needle. The filament was inserted into the ICA through the CCA, the arterial clipped on ICA was loosened, and the filament was slowly advanced. When the mark on the filament reached the bifurcation and a slight resistance was felt, the thin wire at ICA was tightened, and saline was used to clean the wound and then suture was performed. The sham procedure was the same as the experimental group except that no filament was inserted. After anesthesia, the rats were raised normally.
Rats were trained in adhesion experiments for one week before modeling, and those that could successfully tear off the tape within 10 s were screened for modeling. After 2 h of modeling by the filament technique, the rats were immediately administered with the drug according to the grouped administration plan. Thereafter, the rats were continued to be administered with the drug once a day for 14 days, and adhesion experiments were performed on days 1, 4, 7, 10, and 14 to assess sensory and motor nerve function. The specific operation was as follows. A circular tape with a diameter of about 12 mm was adhered to the plantar surface of the left forelimb of the rat, and the sensation and removal time of the tape was recorded. If the mice were unable to perceive and/or remove the tape within 60 s, 60 s were recorded.

[2] = system: superoxide dismutase (SOD); assay: SOD activity in striatum of PD mice; format: in vivo, C57 mice; conditions: Group D, CTMB 20 mg/kg ip, after 4 weeks, injured side
Protocol: The mice were randomly divided into a sham operation group (group S, given a blank emulsion with a volume equal to that of the administered group), a model group (group M, given a blank emulsion with a volume equal to that of the administered group), a CTMB group (20 mg/kg, group D), and a levodopa group (levodopa: benserazide hydrochloride=4:1, 12 mg/kg, group L), each group included 10-12 mice, and all of them were administered intraperitoneally.
Malondialdehyde (MDA) is a commonly used indicator of membrane lipid peroxidation, reduced glutathione (GSH) is one of the most commonly used non-enzymatic indicators of antioxidant substances, and superoxide dismutase (SOD) is a common indicator of antioxidant enzymes. After completing the evaluation of motor function after 4 weeks of drug administration, the mice were deeply anesthetized and perfused with 20 mL of saline via the heart. The brain was rapidly severed to isolate the striatal region on the injured side (right side), weighed, and placed into a 1.5 mL EP tube, and homogenized at low temperature by adding phosphate-buffered saline (PBS) at the ratio of a weight of animal tissues (g) to a volume of homogenization medium (mL) of 1:9. […]

COc1cc(OC)c(OC)cc1C=C1CCC1 [CTMB, 1-(cyclobutylidenemethyl)-2,4,5-trimethoxybenzene]
toxic side effects associated with administration ([1]; 10 and 20 mg/kg ip once a day for 14 days, bonding test): No toxic side effects | Time for rats to perceive tape, Day 1 ([1]; CTMB-H 20 mg/kg ip once a day): 31.17 ± 24.57^#^ s | Time for rats to perceive tape, Day 4 ([1]; CTMB-H 20 mg/kg ip once a day): 25.33 ± 23.41^#^ s | Time for rats to perceive tape, Day 7 ([1]; CTMB-H 20 mg/kg ip once a day): 20.50 ± 22.99^#^ s | Time for rats to perceive tape, Day 10 ([1]; CTMB-H 20 mg/kg ip once a day): 7.00 ± 4.56 s | Time for rats to perceive tape, Day 14 ([1]; CTMB-H 20 mg/kg ip once a day): 8.44 ± 11.94 s | Time of removing tape, Day 1 ([1]; CTMB-H 20 mg/kg ip once a day): 53.67 ± 16.66 s | Time of removing tape, Day 4 ([1]; CTMB-H 20 mg/kg ip once a day): 51.33 ± 17.14 s | Time of removing tape, Day 7 ([1]; CTMB-H 20 mg/kg ip once a day): 48.67 ± 16.55 s | Time of removing tape, Day 10 ([1]; CTMB-H 20 mg/kg ip once a day): 31.11 ± 19.76 s | Time of removing tape, Day 14 ([1]; CTMB-H 20 mg/kg ip once a day): 33.22 ± 23.03 s | Time for rats to perceive tape, Day 1 ([1]; CTMB-L 10 mg/kg ip once a day): 42.25 ± 25.53 s | Time for rats to perceive tape, Day 4 ([1]; CTMB-L 10 mg/kg ip once a day): 27.50 ± 28.05 s | Time for rats to perceive tape, Day 7 ([1]; CTMB-L 10 mg/kg ip once a day): 28.20 ± 28.97^#^ s | Time for rats to perceive tape, Day 10 ([1]; CTMB-L 10 mg/kg ip once a day): 27.11 ± 30.06 s | Time for rats to perceive tape, Day 14 ([1]; CTMB-L 10 mg/kg ip once a day): 10.44 ± 12.44 s | Time of removing tape, Day 1 ([1]; CTMB-L 10 mg/kg ip once a day): 50.75 ± 17.65 s | Time of removing tape, Day 4 ([1]; CTMB-L 10 mg/kg ip once a day): 36.20 ± 24.17 s | Time of removing tape, Day 7 ([1]; CTMB-L 10 mg/kg ip once a day): 38.60 ± 26.15^#, * s | Time of removing tape, Day 10 ([1]; CTMB-L 10 mg/kg ip once a day): 26.63 ± 27.80 s | Time of removing tape, Day 14 ([1]; CTMB-L 10 mg/kg ip once a day): 26.22 ± 21.48 s | SOD [2]: 80.24 ± 10.46 U/mg protein
